{
  "source": "patent US20250334536A1",
  "about": "“MODIFIED OXID[…] ITS APPLICATION” (National Yang Ming Chiao Tung University, priority 2024, published 2025)",
  "key": {"[1]": {"test_system": "nanoparticle composition (enzyme nanoparticles of modified glucose oxidase of the first type crosslinked with glutaraldehyde)", "experimental": "Deionized water solutions with varying pH values are then prepared, into which horseradish peroxidase (HRP, 0.4 μg/mL) and ABTS (2.5 mM) are added, followed by addition of the nanoparticle composition (0.1 μg/mL). 1 mL of the resulting mixture is placed in a UV-Vis spectrophotometer (model V670, JASCO), and the detection wavelength is set to 740 nm, corresponding to the characteristic absorption wavelength of ABTS^+·. Subsequently, glucose is added, and the time-dependent absorbance is measured. Using the standard calibration curve of ABTS^+· and the slope of the reaction rate, the time-dependent concentration of ABTS^+· is calculated. Enzyme kinetic parameters are then determined based on the Michaelis-Menten model, with further analysis performed using the Lineweaver-Burk model to evaluate the steady-state enzymatic behavior of the nanoparticle composition under different pH conditions."}, "[2]": {"test_system": "nanoparticle composition (enzyme nanoparticles of modified glucose oxidase of the first type crosslinked with glutaraldehyde)", "remark": "listed apart in the source", "quoted_text": "Ethanol is then gradually added (5 μl each time) until the solution becomes turbid. Glutaraldehyde is added, and the mixture is stirred at room temperature for 1.5 hours. After the reaction, the formed nanoparticles are collected by centrifugation (12,000 g, 15 minutes). The collected precipitate is resuspended in a mixture of ethanol and deionized water, followed by centrifugation under the same conditions. Subsequently, the nanoparticles are washed twice by centrifugation under the same conditions using ultrapure water. Finally, the precipitate is resuspended in deionized water and stored at 4° C. until use.\nSubsequently, the catalytic efficiency of the nanoparticle composition is investigated using the 2,2′-azino-bis(3-ethylbenzothiazoline-6-sulfonic acid) (ABTS) assay. […] The generated H2O2 then reacts with HRP to oxidize the colorless ABTS into the green ABTS radical cation (ABTS^+·), enabling colorimetric analysis of enzyme activity."}, "[3]": {"test_system": "nanoparticle composition (enzyme nanoparticles of modified glucose oxidase of the first type crosslinked with glutaraldehyde)", "conditions": "35° C.", "quoted_text": "Subsequently, an enzyme reaction solution containing the nanoparticle composition (concentration: 0.1 μg/mL), HRP (concentration: 0.4 μg/mL), and ABTS (concentration: 2.5 mM) is prepared. A volume of 400 μL of the reaction solution is transferred to a J-815 circular dichroism spectrometer for subsequent measurements, and a circulating constant-temperature water bath is activated to regulate the temperature to the desired setting. […] The change in absorbance over time is then recorded. Using the standard calibration curve of ABTS^+· and the rate of absorbance change, the corresponding concentration change of ABTS^+· is calculated. Based on the Michaelis-Menten kinetic model, various enzyme kinetic parameters are derived to evaluate the catalytic efficiency and stability of the nanoparticle composition under different temperature conditions."}, "[4]": {"test_system": "glucose oxidase nanoparticles", "conditions": "comparison value; cited from earlier work"}, "[5]": {"conditions": "nanoparticle composition, substrate glucose"}},
  "note": "Read-outs that look alike come from different tables or passages of the source.",
  "data": [
    {"smiles": "OC[C@H]1OC(O)[C@H](O)[C@@H](O)[C@@H]1O", "note": "(some centres unmarked) [glucose]", "values": [
      {"measurement": "Kcat/KM", "setting": "[1]; pH 5", "value": 5000, "unit": "M⁻¹ s⁻¹"},
      {"measurement": "Kcat/KM", "setting": "[1]; pH 7", "value": "approximately 4.8×10^4 s^−1·M^−1"},
      {"measurement": "Kcat/KM", "setting": "[1]; pH 9", "value": 10000, "unit": "M⁻¹ s⁻¹"},
      {"measurement": "catalytic efficiency (Kcat/KM), times higher than that of glucose oxidase nanoparticles", "setting": "[2]; nanoparticle composition vs glucose oxidase nanoparticles (676 M^−1·s^−1)", "value": "approximately 66 times"},
      {"measurement": "increase of catalytic efficiency (Kcat/KM) compared to modified glucose oxidase", "setting": "[2]; nanoparticle composition vs modified glucose oxidase", "value": "more than 300%"},
      {"measurement": "Kcat", "setting": "[2]; [5]", "value": 421.87, "unit": "s⁻¹"},
      {"measurement": "Kcat/KM", "setting": "[2]; [5]", "value": 45200, "unit": "M⁻¹ s⁻¹"},
      {"measurement": "Km", "setting": "[2]; [5]", "value": 9.33, "unit": "mM"},
      {"measurement": "VMax", "setting": "[2]; [5]", "value": 0.2646, "unit": "μM^s − 1"},
      {"measurement": "Kcat/KM", "setting": "[3]", "value": "approximately 6.0×10^4 s^−1·M^−1"},
      {"measurement": "catalytic efficiency (Kcat/KM)", "setting": "[4]", "value": 676, "unit": "M⁻¹ s⁻¹"}
    ]}
  ]
}
